Experimental data published in a melting point compilation (Tetko et al.; mined from patent text by program, amines drawn as free bases though some values may be those of a salt).

Row | melting point [°C] | SMILES
1 | 182 to 184 | Cn1cccc1C(=O)C(C#N)C(=O)Nc1ccc(O)cc1 (stereo not drawn)
2 | 97 to 98 | C[C@@](O)(CO)COc1cccc(-c2noc3ccsc23)c1
3 | 77 to 80 | CN=NNc1ccc(C)cc1
4 | 123 to 124 | CCOC(=O)/C=C/c1cc(-c2ccccc2)nn1Cc1ccc(Cl)cc1Cl
5 | 143 to 145 | FC(F)(F)COC(c1ccc(Cl)c2nc3n(c12)CCCN3c1ccc(Cl)cc1Cl)C1CC1 (stereo not drawn)
6 | 85 to 86 | N#CC1=C(c2ccccc2)Oc2ccccc2O1
7 | 141 to 142 | CCN(CC)CCNc1nc(N)nc(-c2cc(Cl)ccc2Cl)n1
8 | 178 to 180 | Nc1sc2c(c1C(=O)c1ccc3ccccc3c1)CCC2
9 | 78 | O=C(CC(=S)S)c1ccc(Oc2ccccc2)cc1
10 | 176 to 178 | C=c1c(=O)[nH]c2n1Cc1cc(OCCCC(=O)N(C)C3CCCCC3)ccc1N=2
11 | 68 to 70 | O=C1NC(=O)C(Cc2ccc(OCCN3c4ccccc4Sc4ccccc43)cc2)S1 (stereo not drawn)
12 | 155 to 162 | CC(=O)Nc1cccc2c1C(=O)CCCC2
13 | 175 to 184 | CC(=O)SCC(C(=O)NC(Cc1ccc(O)c(O)c1)C(=O)O)C(F)(F)F (stereo not drawn)
14 | 132 to 138 | C=CCc1cc2c(c(CC=C)c1O)N(CC=Cc1ccccc1)C(=O)CC2
15 | 88 to 91 | Fc1cc(Cl)c(OC2CCCC2)cc1-n1nc2c(c1Cl)CCCC2
16 | 196 to 197 | O=C(O)CNC(=O)Nc1cccc(C(=O)O)c1
17 | 144 to 145 | COC(=O)C=Cc1cc(C)n(CCNC(C)=O)c1C
18 | 214 to 217 | COc1cc2ncc(C#N)c(Nc3cccc(Cl)c3)c2cc1OC
19 | 107 | O=c1c2ccccc2ccn1Cc1ccc(F)cc1
20 | 105 to 108 | Cc1cc(Cl)ccc1NC(=O)C(=O)N1CCC(Cc2ccccc2)CC1
21 | 195 | COC(=O)c1csc(C)c1S(=O)(=O)NC(=O)Nc1nc(C)nc(OC)n1
22 | 157 | S=C1CCCC(c2ccc(Br)cc2)N1 (stereo not drawn)
23 | 122 to 124 | CN1Cc2cccnc2N(c2cccc(C(F)(F)F)c2)C1=O
24 | 257 | CC(=O)n1c(C(F)(F)F)nc(-c2ccc(S(C)(=O)=O)cc2)c1-c1cc(C)cc(Cl)c1
25 | 170 to 178 | O=c1[nH]c2ccc(C3=NOC(CN4CCC(S(=O)c5ccc(F)cc5)CC4)C3)cc2o1 (stereo not drawn)

Row | melting point [°C] | SMILES
26 | 168 | CN(C)N1C(=O)c2ccccc2NS1(=O)=O
27 | 176 to 180 | CC(C)Cn1c(=O)n(C)c(=O)c2c(C/C=C/CC(=O)O)n(Cc3cccc4ccccc34)cc21
28 | 174 to 176 | COc1ccc(NC(=O)c2ccc(F)c(F)c2)cc1NCc1cccc(O)c1
29 | 51.2 to 53.6 | CCc1nn2c(-c3ccc(OC)cc3OC)cccc2c1N(CC)CCF
30 | 230 | CCOC(=O)c1cn(C2CC2)c2nc3cc(F)c(F)cc3cc2c1=O
31 | 68 to 70 | C=C1c2ccccc2CC(=O)Cc2ccccc21
32 | 200 to 204 | O=C(Cn1nnc2ccccc21)Nc1ccc(-n2nc(C(F)(F)F)cc2C2CC2)cc1
33 | 172 to 173 | CCOC(=O)CCc1ccc2c(c1)nc(N)c1nc(CC)n(CC3CCOCC3)c12
34 | 158 to 159 | N#Cc1cc(NC(=O)c2cccn2-c2ccc(F)cc2)ccc1N1CCCCC1
35 | 198 | CC(=NNC(=O)c1ccc(C(F)(F)F)cc1)c1ccncc1
36 | > 225 | CC1(C)CC(N2C(=O)c3ccc(C(=O)O)cc3C2=O)CC(C)(C)N1
37 | 216 to 217 | COc1cc2ncnc(N3CCN(C(=S)NCc4ccc(C(F)(F)F)cc4)CC3)c2cc1OC
38 | 225 to 227 | C#Cc1cccc(Nc2ncnc3cnc(F)cc23)c1
39 | 271 to 272 | CCOC(=O)c1ncc2[nH]c3ccc(C(=O)OCc4ccccc4)cc3c2n1
40 | 167 to 168 | COc1cccc(-c2nc(-c3ccc(S(C)=O)cc3)[nH]c2-c2ccncc2)c1 (stereo not drawn)
41 | 78 to 79 | CCCCCCCCCCCCCCCCc1nc(N(C)C)nc(OC)c1O
42 | 71 to 77 | CCOC(=O)Cc1ccnc2c(N)cccc12
43 | 94 to 95 | Cc1ccc(O[C@@H](Cc2ccc(O)cc2)C(=O)OCC[Si](C)(C)C)cc1
44 | 85 to 86 | CC(C)c1ccc(C2c3cc(NCc4ccccc4)ccc3OC2(C)C)cc1 (stereo not drawn)
45 | 156 to 158 | Cc1c(NC(=O)c2ccc(OC[C@@H]3CCCO3)cc2)ccc2cc(CNCC3CC3)cnc12
46 | 168 to 170 | COc1cccc(S(=O)(=O)N2CCc3cc(O)c(OC)cc3C2)c1
47 | 146 to 148 | CC1(Cn2nc(-c3ccc(OC(F)(F)F)cc3)oc2=O)Cn2cc([N+](=O)[O-])nc2O1 (stereo not drawn)
48 | 76 to 78 | CCOC(=O)c1c(C)nc(CCl)c(C(=O)OCC)c1-c1cccc([N+](=O)[O-])c1
49 | 195 | COc1cc(Nc2nccc(-c3ccc(N)cc3)n2)cc(OC)c1OC
50 | 120 to 121 | C=CCC(N)(Cc1ccccc1)C(N)=O (stereo not drawn)

Row | melting point [°C] | SMILES
51 | 232 | CCCC(=O)Nc1n[nH]c2cc(-c3ccc(F)cc3)ccc12
52 | 127 to 129 | COc1ccc2c(=O)c3ccccc3oc2c1
53 | 169 to 171 | CCOC(=O)N1Cc2sc3ncn(CCCl)c(=O)c3c2C1
54 | 81 to 85 | Cc1nccn1CC#CCN1CCCC1=O
55 | 315 to 316 | COc1ccc(C(=O)Nc2ccc(S(N)(=O)=O)cc2)c(SSc2cc(OC)ccc2C(=O)Nc2ccc(S(N)(=O)=O)cc2)c1
56 | 293 to 295 | Cc1nc2sccn2c1C1=NNC(=O)NC1
57 | 151 | O=C(N[C@H](c1ccccc1)[C@@H](O)CO)c1cc2ccccc2[nH]1 (racemic)
58 | 195 to 197 | O=C(O)c1ccc(Oc2ccc([N+](=O)[O-])cc2)cc1O
59 | 165 to 167 | COc1ccc(C(=O)Nc2ccccc2)cc1NCc1ccc(F)cc1
60 | 267 to 268 | CC(=O)Nc1ccc(N2C(=O)CCCC2c2ccc(Cl)c(Cl)c2)cc1 (stereo not drawn)
61 | 168 to 170 | Oc1cccc(-n2cnc3cc(C(F)(F)F)ccc32)c1
62 | 74 to 75 | CC(O)CCc1ccc(-c2ccccc2)cc1 (stereo not drawn)
63 | 228 to 230 | Cc1c(C(N)=O)oc2nn(Cc3ccccc3)c(C)c12
64 | 214 to 216 | N#Cc1cnn2c1N(C(=O)CN1CCN(C(=O)Nc3ccc(Cl)c(C(F)(F)F)c3)CC1)CC=C2c1cccc(C(F)(F)F)c1
65 | > 300 | CCn1cc(C(=O)O)c(=O)c2cc3oc(C(=O)O)cc3nc21
66 | 168 to 172 | CC(C)CC(=O)N1CCC(c2nc3cc(-c4ccc(-n5cnnn5)cc4F)ccc3o2)CC1
67 | 268 to 270 | COc1cc2[nH]c(N(C)Cc3cccc(N)c3)nc(=O)c2c(C)c1OC
68 | 142 to 144 | CNC(=O)N(OC(=O)NC(C)(C)C)C(C)=O
69 | 198 | CN(O)C(=O)Nc1ccc(S(C)(=O)=O)cc1
70 | 84 to 86 | OC1(c2cccc(OCc3ccccc3)c2)CCOCC1
71 | 119 to 121 | Oc1ccc(Oc2ccc(I)cc2)cc1
72 | 274 to 276 | Nc1n[nH]c2cc(CN3CCN(S(=O)(=O)c4cc5ccc(Cl)cc5s4)CC3=O)ccc12
73 | 134 to 137 | O=C(COc1ccccc1)Nc1ccc(CN2C(=O)[C@H]3CCC[C@H]3N(C(=O)CN3C(=O)c4ccccc4C3=O)c3ccccc32)cc1 (relative stereo)
74 | 142 to 144 | COc1ccc2c(c1)CC1(CCC(=O)CC1)C21OCCO1
75 | 128 to 131 | Cc1cc(N2CCN(Cc3ccc(F)cc3)C2=O)sc1C(=O)NCc1cccs1

Row | melting point [°C] | SMILES
76 | > 300 | O=C(O)c1ccc(-c2cnc3c(c2)N(Cc2cc(F)ccc2F)C(=O)CN3)cc1
77 | 167 to 169 | OCC1OC(n2c(Cl)nc3c(Br)c(Br)ccc32)C(O)C1O (stereo not drawn)
78 | 113 to 115 | CCOC(=O)C(=O)CC(=O)C(Br)C(Br)c1ccccc1OC (stereo not drawn)
79 | 208 to 209 | CCOC(=O)c1[nH]c2cc(Cl)cc(Cl)c2c1NCCC(=O)c1ccccc1Cc1ccccc1
80 | 176 | N#Cc1cnn2c(C(F)(F)F)cc(-c3ccc(C(F)(F)F)cc3)nc12
81 | 108 to 109 | O=C(c1ccc2nonc2c1)N(C1CCOCC1)C1CC1
82 | 86 to 87 | O=Cc1ccc2c(c1)N(C1CCN(CCc3ccccc3F)CC1)CC2
83 | 198 | CS(=O)(=O)C(=C1CN(C(c2ccccc2)c2ccccc2)C1)c1cccc(I)c1
84 | 50 to 54 | CC(=O)SCCC(=O)[C@H]1CC[C@H]1C(=O)O (relative stereo)
85 | 203 to 205 | COc1ccc(/C=C/C(=O)C2C(=O)CC(c3ccc(OC)cc3)C([N+](=O)[O-])C2C2CCCCC2)cc1 (stereo not drawn)
86 | 116 | CN=C(NC#N)S(C)=O (stereo not drawn)
87 | 186 to 189 | COC(=O)C(Cc1ccccc1)Nc1nnc(N)s1 (stereo not drawn)
88 | 68 to 69 | O=C(N[C@H]1CC[C@@H](C(=O)Oc2ccc3c(c2)CCC3)CC1)OCc1ccccc1
89 | 168 to 170 | COC(=O)NC(=O)Nc1ccc(OC)c(OC)c1
90 | 134 | CCOC(=O)C=Cc1ccc(N2CCCC2=O)cc1
91 | 114 | COc1ccc(-c2cc(C(=O)Nc3ccc(CCN(C)Cc4ccc(OC)c(OC)c4)cc3)c3ccccc3n2)cc1
92 | 191 to 192 | CS(=O)(=O)c1snc(OCC#CI)c1C#N
93 | 192 to 193 | CCOC(=O)c1ncn2c1c(C)nc1ccccc12
94 | 133 to 136 | CC(=O)c1cc(Cl)c(N)c2c1OCCO2
95 | 112 to 113 | COC=C1CCC(C#N)(c2ccc(OC)c3c2OCCO3)CC1 (stereo not drawn)
96 | 246 to 248 | Cc1ccccc1C(=O)Nc1ccc(C(=O)N2CCc3cn(C)nc3-c3ccccc32)cc1
97 | 142 | CC(Cc1ccc(Cl)cc1Cl)NC(=O)c1ccccc1C(F)(F)F (stereo not drawn)
98 | 131 to 133 | COc1ccc(C2=NN(C3CCCC3)C(=O)[C@H]3CC=CC[C@@H]23)cc1OC (relative stereo)

Row | SMILES | melting point [°C]
99 | C1=C(c2ccccc2)CCN(Cc2n[nH]c3c2CCc2ccccc2-3)C1 | 175 to 176
100 | CN(C)Cc1nnc2n1-c1ccc(Br)cc1C(c1ccccn1)=NC2 | 163 to 164
101 | CC1(C)CCc2ccc(O)cc21 | 84.5 to 86.5
102 | CC1(C)NC(=O)CN1C(=O)CBr | 137 to 138
103 | CN1CCN(c2n[nH]c3ccc(Cl)cc23)CC1 | 172 to 174
